Assay results reported in ChEMBL document CHEMBL1649337, “Triterpenoidal alkaloids from Buxus natalensis and their acetylcholinesterase inhibitory activity” (J Nat Prod, 2010).

These molecules were tested against Acetylcholinesterase (Homo sapiens, UniProt P22303) (assay: Inhibition of AChE by Ellman's method). Details: not given; call rule not given here.
Sequence of Acetylcholinesterase (P22303 whole entry): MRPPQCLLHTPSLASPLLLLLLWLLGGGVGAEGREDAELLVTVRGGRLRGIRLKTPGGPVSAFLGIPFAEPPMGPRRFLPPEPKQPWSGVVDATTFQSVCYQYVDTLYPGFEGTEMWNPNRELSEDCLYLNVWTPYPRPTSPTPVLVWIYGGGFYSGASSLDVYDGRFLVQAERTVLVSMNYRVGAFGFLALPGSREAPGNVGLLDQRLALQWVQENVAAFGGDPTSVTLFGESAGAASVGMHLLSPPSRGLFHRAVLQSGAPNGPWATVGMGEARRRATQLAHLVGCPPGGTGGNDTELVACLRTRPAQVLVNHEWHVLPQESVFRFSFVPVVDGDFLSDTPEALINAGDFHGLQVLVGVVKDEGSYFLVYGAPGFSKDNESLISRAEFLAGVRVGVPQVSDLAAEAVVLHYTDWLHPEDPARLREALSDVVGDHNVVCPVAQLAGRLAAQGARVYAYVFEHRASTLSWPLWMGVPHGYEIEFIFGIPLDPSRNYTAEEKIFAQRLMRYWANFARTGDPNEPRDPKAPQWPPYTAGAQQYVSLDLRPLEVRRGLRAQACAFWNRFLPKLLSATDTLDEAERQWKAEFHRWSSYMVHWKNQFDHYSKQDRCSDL

Question: With NCCCCNC(=O)/C=C/c1ccc(O)cc1 [P-COUMAROYLPUTRESCINE] as the molecule, how does the IC50 read?
Answer: Not Active

Same assay, conditions: read-out: IC50

Question: How did the IC50 turn out when CC(=O)O[C@H]1C[C@@H]2C(=CC[C@]3(C)[C@@H]([C@H](C)N(C)C)[C@H](O)C[C@@]23C)C[C@@]23O[C@@H]2[C@H]2OC[C@](C)([C@H]2NC(=O)c2ccccc2)[C@H]13 was run?
Answer: 3 µM

Question: How did the IC50 turn out when C[C@@H]([C@H]1[C@H](O)C[C@@]2(C)[C@@H]3C[C@H](O)[C@H]4[C@]5(C)CO[C@]4(C=C[C@@H]5NC(=O)c4ccccc4)CC3=CC[C@]12C)N(C)C was run?
Answer: 8.5 µM

Question: For C[C@@H]1[C@@H]2CC[C@@H]3C(=CC[C@]4(C)[C@@H]([C@H](C)N(C)C)[C@H](O)C[C@@]34C)C=C2CC[C@@H]1N(C)C [31-DEMETHYLBUXAMINOL], which IC50 is on record?
Answer: 25.8 µM

Question: With CC(=O)O[C@@H]1C[C@@]2(C)[C@@H]3C[C@H]4OC[C@@]5(C)[C@@H](NC(=O)c6ccccc6)C=C[C@@](O)(CC3=CC[C@]2(C)[C@H]1[C@H](C)N(C)C)[C@@H]45 [BUXAFURANAMIDE] as the molecule, how does the IC50 read?
Answer: 14 µM

Question: With CC(=O)O[C@@H]1C[C@@]2(C)[C@@H]3CC[C@H]4[C@](C)(CO)[C@@H](NC(=O)c5ccccc5)C=C[C@]4(O)CC3=CC[C@]2(C)[C@H]1[C@H](C)N(C)C [BUXALONGIFOLAMIDINE] as the molecule, how does the IC50 read?
Answer: 30.2 µM

Question: Which IC50 does the source give for C[C@@H]([C@H]1CC[C@@]2(C)[C@@H]3CC[C@@H]4C(=CC3=CC[C@]12C)CC[C@H](N(C)C)C4(C)C)N(C)C [BUXAMINE A] here?
Answer: 80 µM

Question: How did the IC50 turn out when C[C@@H]([C@H]1[C@H](O)C[C@@]2(C)[C@@H]3CC[C@@H]4C(=CC3=CC[C@]12C)CC[C@H](N(C)C)C4(C)C)N(C)C [BUXAMINOL A] was run?
Answer: 29.8 µM

Question: With CN[C@H]1CCC2=CC3=CC[C@]4(C)[C@@H]([C@H](C)N(C)C)[C@H](O)C[C@@]4(C)[C@@H]3CC[C@H]2C1(C)C [BUXAMINOL C] as the molecule, how does the IC50 read?
Answer: 40 µM

Question: Which IC50 does the source give for C/C=C1/C(=O)C[C@@]2(C)[C@@H]3CC[C@H]4C(C)(C)[C@@H](N(C)C)CC[C@@]45C[C@@]35CC[C@]12C [CYCLOBUXOPHYLLINE K] here?
Answer: 58.2 µM

Question: Which IC50 does the source give for C[C@@H]([C@H]1[C@H](O)C[C@@]2(C)[C@@H]3C=C[C@H]4C(C)(C)[C@@H](N(C)C)[C@H](O)C[C@@]45C[C@@]35CC[C@]12C)N(C)C [CYCLONATAMINOL] here?
Answer: 22.9 µM
